Measured values from patent publication US7989589B2, “Compstatin analogs with improved activity” (The Trustees Of The University Of Pennsylvania, priority 2002, dated 2011).

Columns and labels:
[1] = tested on: activation of the complement system by immunocomplexes (C3 fixation); assay: Complement inhibition assay: inhibition of C3 fixation (C3b/iC3b deposition) to ovalbumin-anti-ovalbumin complexes in normal human plasma; format: biochemical; details: complement-inhibiting activity
Protocol: Complement activation inhibition was assessed by measuring the inhibition of C3 fixation to ovalbumin—anti-ovalbumin complexes in normal human plasma. Microtiter wells were coated with 50 μl of ovalbumin (10 mg/ml) for 2 hr at 25° C. (overnight at 4° C.). The wells were saturated with 200 μl of 10 mg/ml BSA for 1 hr at 25° C. and then a rabbit anti-ovalbumin antibody was added to form an immunocomplex by which complement can be activated. Thirty microliters of peptides at various concentrations were added directly to each well followed by 30 μl of a 1:80 dilution of human plasma. After 30 min incubation, bound C3b/iC3b was detected using a goat anti-human C3 BRP-conjugated antibody. Color was developed by adding ABTS peroxidase substrate and optical density measured at 405 nm. The concentration of the peptide causing 50% inhibition of C3b/iC3b deposition was taken as the IC50 and used to compare the activities of various peptides.

[2] = tested on: alternative pathway-mediated erythrocyte lysis; details: cited from earlier work
[3] = tested on: complement activation in human serum; details: cited from earlier work
[4] = tested on: heparin/protamine-induced complement activation; details: primates; cited from earlier work
[5] = tested on: porcine-to-human xenograft; details: porcine-to-human xenograft perfused with human blood; cited from earlier work
complement activation [6] = details: cardio-pulmonary bypass, plasmapheresis, dialysis models; cited from earlier work
complement activation [7] = details: in vivo animal models; cited from earlier work

Ac-ICVWQDWGAHRCdT-COOH [Ac- 4W, 9A13dT —OH]
activity compared with another peptide (in words) [1]: activity equal to that of peptide SEQ ID NO:5

CC[C@H](C)[C@H](N)C(=O)N[C@H]1CSSC[C@@H](C(=O)N[C@H](C(N)=O)[C@@H](C)O)NC(=O)[C@H](CCCN=C(N)N)NC(=O)[C@H](Cc2cnc[nH]2)NC(=O)[C@H](Cc2cnc[nH]2)NC(=O)CNC(=O)[C@H](Cc2c[nH]c3ccccc23)NC(=O)[C@H](CC(=O)O)NC(=O)[C@H](CCC(N)=O)NC(=O)[C@H](C(C)C)NC(=O)[C@H](C(C)C)NC1=O [Compstatin]
IC50 [2]: 12 µM | inhibition of complement activation in human serum [3]: inhibit complement activation in human serum | inhibition of heparin/protamine-induced complement activation [4]: inhibit heparin/protamine-induced complement activation in primates without significant side effects | lifetime of xenograft [5]: prolong the lifetime of a porcine-to-human xenograft perfused with human blood | inhibition of complement activation in extra-corporeal circuit models (complement activation [6]): inhibit complement activation in models of cardio-pulmonary bypass, plasmapheresis, and dialysis extra-corporeal circuits

sCR1: recombinant form of complement receptor 1 known as soluble complement receptor 1
suppression of complement activation (complement activation [7]): suppress complement activation in in vivo animal models
